Data reported in patent US9963462B2 (priority 2015, dated 2018).

Legend:
[1] = test system: BH4 levels in SK-N-BE (2) cells; assay: SKN-N-BE (2) cellular assay, BH4 levels by LC-MS; assay type: cell-based; conditions: Homo sapiens, SKNBE2, read-out: SK-N-BE(2) IC50, SK-N-BE (2) cells, BH4 levels by LC-MS
[2] = test system: BH4 production in human peripheral blood mononuclear cells (PBMCs); assay: hPBMC assay, inhibition of BH4 production by LC-MS (anti-CD3/anti-CD28 stimulated); assay type: cell-based; conditions: PBMC, read-out: hPBMC IC50
Description: hPBMC Assay: PBMCs were either purchased or isolated from fresh human blood and used either as a fresh preparation or frozen for later use. The assay system was prepared by pre-treating the assay plates overnight with a solution containing anti-human CD3 antibody. Human PBMCs were suspended in assay medium and plated into the assay plates at a density of 1-4×10^5 cells per well. The desired concentration of the test compound was added to each well. A solution of human anti-CD28 antibody was also added to each well. Plates were incubated for 12-48 hours at 37° C. and 5% CO2. Assay plates were centrifuged for 5-15 minutes at 1-3000 RMP and supernatants were removed. The cells were lysed, sealed and used directly or frozen at −80° C. LC-MS was used to quantify the amount of inhibition of BH4 production.
PBMCs were either purchased or isolated from fresh human blood and used either as a fresh preparation or frozen for later use. The assay system was prepared by pre-treating the assay plates overnight with a solution containing anti-human CD3 antibody. Human PBMCs were suspended in assay medium and plated into the assay plates at a density of 1-4×10^5 cells per well. The desired concentration of the test compound was added to each well. A solution of human anti-CD28 antibody was also added to each well. Plates are incubated for 12-48 hours at 37° C. and 5% CO2. Assay plates were centrifuged for 5-15 minutes at 1-3000 RMP and supernatants were removed. The cells were lysed, sealed and used directly or frozen at −80° C.

[3] = target: SNAP-hSPR (sepiapterin reductase, SPR) (Homo sapiens, UniProt P35270); assay: biochemical; assay type: binding; conditions: terbium labelled SNAP-hSPR / SSZ labelled SNAP-EGFP; read-out: hTR-FRET IC50
Chain of SNAP-hSPR (sepiapterin reductase, SPR) (P35270 whole entry): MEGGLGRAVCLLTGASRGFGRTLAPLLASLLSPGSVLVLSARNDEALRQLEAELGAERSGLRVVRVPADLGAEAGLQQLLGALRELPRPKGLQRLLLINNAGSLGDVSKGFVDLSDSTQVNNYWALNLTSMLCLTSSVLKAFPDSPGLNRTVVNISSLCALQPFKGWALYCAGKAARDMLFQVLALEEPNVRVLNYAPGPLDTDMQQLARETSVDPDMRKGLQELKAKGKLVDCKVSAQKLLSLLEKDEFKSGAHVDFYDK

Compound | IC50 [1] [nM] | IC50 [2] [nM] | IC50 [3] [nM]
Cc1c(C(=O)N2CCC(C)(C#N)CC2)cnn1-c1nn2cccc2c(=O)[nH]1 [Q-0800] | 600 | 47 | 2
Cc1c(C(=O)N2CC3CC(F)(F)C3C2)cnn1-c1nn2cccc2c(=O)[nH]1 (stereo not drawn) [Q-0804] | 300 | 94 | 1
Cc1c(C(=O)N2CC(N3CCC(F)(F)C3)C2)cnn1-c1nn2cccc2c(=O)[nH]1 [Q-0812] | 1000 | 150 | 3
Cc1c(C(=O)N2CC3(CCCC3)C2)cnn1-c1nn2cccc2c(=O)[nH]1 [Q-0813] | 100 | 65 | 1
Cc1c(C(=O)N2CCC(O)(C3CC3)CC2)cnn1-c1nn2cccc2c(=O)[nH]1 [Q-0815] | 100 | 72 | 1
Cc1c(C(=O)N2CC3(C2)CC(F)(F)C3)cnn1-c1nn2cccc2c(=O)[nH]1 [Q-0816] | 600 | 170 | 1
Cc1c(C(=O)N2CCC(C3(C#N)CC3)CC2)cnn1-c1nn2cccc2c(=O)[nH]1 [Q-0817] | 200 | 44 | 1
Cc1c(C(=O)N2CCN(C3CCC3)CC2)cnn1-c1nn2cccc2c(=O)[nH]1 [Q-0821] | 100 | 51 | 1
Cc1c(C(=O)N2CC3(CSC3)C2)cnn1-c1nn2cccc2c(=O)[nH]1 [Q-0822] | 400 | 130 | 2
Cc1c(C(=O)N2CCC(CC#N)CC2)cnn1-c1nn2cccc2c(=O)[nH]1 [Q-0825] | 400 | 150 | 2
Cc1c(C(=O)N2CCN(c3ccc(Cl)cn3)CC2)cnn1-c1nn2cccc2c(=O)[nH]1 [Q-0835] | 100 | 39 | 2
Cc1c(C(=O)N2CCN(c3ccc(C(F)(F)F)cn3)CC2)cnn1-c1nn2cccc2c(=O)[nH]1 [Q-0836] | 300 | 52 | 5
Cc1c(C(=O)N2CC3CCC(C2)C3(O)C(F)(F)F)cnn1-c1nn2cccc2c(=O)[nH]1 (stereo not drawn) [Q-0837] | 200 | 63 | 1
Cc1c(C(=O)N2CCC(C(C)C#N)CC2)cnn1-c1nn2cccc2c(=O)[nH]1 (stereo not drawn) [Q-0849] | 300 | 44 | 1
Cc1c(C(=O)N2CC(N(C)C(=O)OC(C)(C)C)C2)cnn1-c1nn2cccc2c(=O)[nH]1 [Q-0850] | 300 | 74 | 1
Cc1c(C(=O)N2CC[C@H](N(C)C(=O)OC(C)(C)C)C2)cnn1-c1nn2cccc2c(=O)[nH]1 [Q-0851] | 500 | 130 | 2
Cc1c(C(=O)N2CC(C)(NC(=O)OC(C)(C)C)C2)cnn1-c1nn2cccc2c(=O)[nH]1 [Q-0867] | 400 | 70 | 2
Cc1c(C(=O)N2CCN(C(=O)OC(C)(C)C)C(C)C2)cnn1-c1nn2cccc2c(=O)[nH]1 (stereo not drawn) [Q-0887] | 200 | 57 | 1
Cc1c(C(=O)N2CCN(C(C)(C)C)CC2)cnn1-c1nn2cccc2c(=O)[nH]1 [Q-0888] | 400 | 240 | 5

Compound | IC50 [1] [nM] | IC50 [2] [nM] | IC50 [3] [nM]
Cc1c(C(=O)N2CC3(CN(CC(F)(F)F)C3)C2)cnn1-c1nn2cccc2c(=O)[nH]1 [Q-0891] | 900 | 240 | 4
Cc1c(C(=O)N2CCN(C(=O)OC(C)(C)C)C[C@H]2C)cnn1-c1nn2cccc2c(=O)[nH]1 [Q-0892] | 400 | 76 | 2
Cc1c(C(=O)N2C[C@@H]3CCC(F)(F)[C@@H]3C2)cnn1-c1nn2cccc2c(=O)[nH]1 [Q-0896] | 300 | 49 | 1
Cc1c(C(=O)N2CCN(C(=O)OC(C)(C)C)[C@H](C)C2)cnn1-c1nn2cccc2c(=O)[nH]1 [Q-0899] | 300 | 48 | 1
Cc1c(C(=O)N2CCN3CC(F)(F)C[C@H]3C2)cnn1-c1nn2cccc2c(=O)[nH]1 [Q-0906] | 800 | 190 | 3
Cc1c(C(=O)N2CCN(CC(F)(F)F)C(C)C2)cnn1-c1nn2cccc2c(=O)[nH]1 (stereo not drawn) [Q-0908] | 300 | 130 | 1
Cc1c(C(=O)N2C3CCC2CC(F)(F)C3)cnn1-c1nn2cccc2c(=O)[nH]1 [Q-0910] | 500 | 74 | 2
Cc1c(C(=O)N2CCC3(CC2)CC3C(=O)N2CCCC2)cnn1-c1nn2cccc2c(=O)[nH]1 (stereo not drawn) [Q-0911] | 400 | 110 | 2
Cc1c(C(=O)N2CCN(C(=O)OC(C)(C)C)C[C@@H]2C)cnn1-c1nn2cccc2c(=O)[nH]1 [Q-0915] | 500 | 92 | 2
Cc1c(C(=O)N2CCC3OCCCC3C2)cnn1-c1nn2cccc2c(=O)[nH]1 (stereo not drawn) [Q-0917] | 700 | 100 | 3
Cc1c(C(=O)N2CCN(CC#N)CC2)cnn1-c1nn2cccc2c(=O)[nH]1 [Q-0918] | 600 | 120 | 2
Cc1c(C(=O)N2CCC3(CC3)C2)cnn1-c1nn2cccc2c(=O)[nH]1 [Q-0921] | 400 | 47 | 2
Cc1c(C(=O)N2CCC3(CC2)CN(C(=O)OC(C)(C)C)C3)cnn1-c1nc2c(c(=O)[nH]1)CCC2 [Q-0924] | 200 | 51 | 2
Cc1c(C(=O)N2CCC(C(F)F)CC2)cnn1-c1nn2cccc2c(=O)[nH]1 [Q-0926] | 200 | 45 | 1
Cc1c(C(=O)N2CC3C(C2)C3(C)C)cnn1-c1nn2cccc2c(=O)[nH]1 (stereo not drawn) [Q-0927] | 200 | 81 | 1
Cc1c(C(=O)N2CCC3(CC2)CC3C(=O)N(C)C2CC2)cnn1-c1nn2cccc2c(=O)[nH]1 (stereo not drawn) [Q-0930] | 300 | 58 | 1
Cc1c(C(=O)N2CC(N3CCC(F)(F)C3)C2)cnn1-c1nc2c(c(=O)[nH]1)CCC2 [Q-0937] | 800 | 130 | 4
Cc1c(C(=O)N2CCC(n3cccc3)CC2)cnn1-c1nn2cccc2c(=O)[nH]1 [Q-0941] | 300 | 13 | 1
Cc1c(C(=O)N2CCC(C3(C(F)(F)F)CC3)CC2)cnn1-c1nc2c(c(=O)[nH]1)CCC2 [Q-0943] | 18 | 38 | 2

Compound | IC50 [1] [nM] | IC50 [2] [nM] | IC50 [3] [nM]
Cc1c(C(=O)N2CCC(C3(C(F)(F)F)CC3)CC2)cnn1-c1nn2cccc2c(=O)[nH]1 [Q-0944] | 28 | 36 | 1
Cc1c(C(=O)N2CCC(C3(C#N)CC3)CC2)cnn1-c1nc2c(c(=O)[nH]1)CCC2 [Q-0948] | 100 | 53 | 1
Cc1c(C(=O)N2CC3(CCN(CC(F)(F)F)CC3)C2)cnn1-c1nn2cccc2c(=O)[nH]1 [Q-0951] | 400 | 45 | 2
Cc1c(C(=O)N2CCC(C#N)(c3ccccn3)CC2)cnn1-c1nn2cccc2c(=O)[nH]1 [Q-0952] | 300 | 83 | 1
Cc1c(C(=O)N2CCC(c3noc(C4CC4)n3)CC2)cnn1-c1nn2cccc2c(=O)[nH]1 [Q-0953] | 58 | 21 | 1
Cc1c(C(=O)N2CCN(C(C)C(F)(F)F)CC2)cnn1-c1nn2cccc2c(=O)[nH]1 (stereo not drawn) [Q-0956] | 86 | 14 | 1
Cc1c(C(=O)N2CCC(c3nccs3)CC2)cnn1-c1nn2cccc2c(=O)[nH]1 [Q-0969] | 200 | 160 | 1
Cc1c(C(=O)N2CC3CCCC(C2)N3C(=O)OC(C)(C)C)cnn1-c1nn2cccc2c(=O)[nH]1 [Q-0972] | 65 | 14 | 1
COC1(C)CCN(C(=O)c2cnn(-c3nn4cccc4c(=O)[nH]3)c2C)CC1 [Q-0973] | 700 | 80 | 1
Cc1c(C(=O)N2CCC(S(=O)(=O)C(C)C)CC2)cnn1-c1nn2cccc2c(=O)[nH]1 [Q-0977] | 500 | 86 | 1
C=CCC(C#N)C1CCN(C(=O)c2cnn(-c3nn4cccc4c(=O)[nH]3)c2C)CC1 (stereo not drawn) [Q-0978] | 81 | 59 | 1
Cc1c(C(=O)N2CCC(C#N)(CC(F)(F)F)CC2)cnn1-c1nn2cccc2c(=O)[nH]1 [Q-0986] | 700 | 110 | 2
Cc1c(C(=O)N2CCCN(CC(F)(F)F)CC2)cnn1-c1nn2cccc2c(=O)[nH]1 [Q-0992] | 800 | 98 | 3
Cc1c(C(=O)N2CC(N3CCCC(F)(F)C3)C2)cnn1-c1nn2cccc2c(=O)[nH]1 [Q-0993] | 1100 | 160 | 3
Cc1c(C(=O)N2CCC(N3CCC(F)(F)CC3)CC2)cnn1-c1nn2cccc2c(=O)[nH]1 [Q-0995] | 600 | 180 | 2
Cc1c(C(=O)N2CCC3(CC2)CC(F)C3)cnn1-c1nn2cccc2c(=O)[nH]1 [Q-0998] | 300 | 92 | 1
Cc1c(C(=O)N2CCC(c3cccnc3F)CC2)cnn1-c1nn2cccc2c(=O)[nH]1 [Q-1003] | 100 | 51 | 1
Cc1c(C(=O)N2CCC3(CC2)CC3)nnn1-c1nn2cccc2c(=O)[nH]1 [Q-1005] | 300 | 100 | 1
